Like-named read-outs stand apart in the source and are kept apart here.
Columns and labels:
[1] = test system: MDA-MB-486 breast tumor xenografts; experiment: MDA-MB-486 breast xenograft study; format: in vivo; conditions: for tumor growth inhibition: 5 weeks, Day 35
Experimental: Female CB-17 SCID mice bearing MDA-MB-486 breast tumor xenografts were orally administered (i) vehicle control (0.1 M HCl/0.5% MC400) or (ii) SRA141 30 or 60 mg/kg BID for 5 weeks (n=10 per treatment group). Tumor growth inhibition was calculated on Day 35, the final day of the study.

Cdc7 = Cdc7 (Homo sapiens, UniProt O00311); experiment: In vitro biochemical kinase assay
Experimental: Inhibition of Cdc7 by SRA141 was measured using in vitro kinase assays.

[2] = 4-cycle repeat oral dose toxicology study (5 days on/2 days off); format: in vivo, dog; conditions: for Cmax / AUC(0-t): plasma, po; for AUC(0-t): read-out: AUC24 h
Experimental: Toxicology studies evaluating SRA141 were conducted in rat and dog following single and repeat oral dosing for up to 4 cycles (5 days on/2 days off per cycle). In addition, the potential genetic toxicity of SRA141 was evaluated in vitro.

[3] = Absolute oral bioavailability; conditions: in vivo, free base suspension, fasted, range given for mouse, rat and dog together, read-out: absolute oral bioavailability (% F)
[4] = Absolute oral bioavailability; conditions: dog, in vivo, read-out: absolute oral bioavailability (% F)
SW620 tumor xenografts = experiment: SW620 colorectal xenograft study (mouse); format: in vivo; conditions: for tumor growth inhibition: Day 21
Experimental: Female BALB/c mice bearing SW620 tumor xenografts were orally administered (i) vehicle (0.1 M HCl/0.5% MC400) or (ii) SRA141 60 mg/kg three times a day (TID) for 4 consecutive days followed by a 2-day dosing holiday for 21 days or (iii) SRA141 120 mg/kg QD for 21 days (n=10 per treatment group). Tumor growth inhibition was calculated on Day 21, the final day of the study. All vehicle control animals remained on study on Day 21.

EOL-1 = experiment: AML 3D culture, 5 days; format: cell-based; conditions: Homo sapiens, EOL1; EOL-1 cell line
Experimental: (§1) The activity of SRA141 was investigated in in vitro and ex vivo three-dimensional (3D) cultures prepared from three AML cell lines (EOL-1, Molm-16 and MV-4-11) and three AML PDX models (AM5512, AM7440 and AM7577), respectively. Tumor cultures were treated with SRA141 (0.08 to 33 μM) for 5 days.

MV-4-11 = experiment: AML 3D culture, 5 days; format: cell-based; conditions: Homo sapiens, MV4-11; MV-4-11 cell line
Experimental: as §1

Molm-16 = experiment: AML 3D culture, 5 days; format: cell-based; conditions: MOLM16; Molm-16 cell line
Experimental: as §1

CYP 3A4/5 = experiment: In vitro time and metabolism-dependent CYP inhibition; format: in vitro ADME; conditions: human
[5] = test system: MCM2, Ser40/41 and Ser53 (Colo-205 cells); experiment: Phosphorylation status of Cdc7 target MCM2 in cells; format: cell-based, human; conditions: Colo-205, 8 to 24 hours
Experimental: Colo-205 cells were treated with SRA141 (at concentrations between 0.033 and 3.3 μM) for 8 to 24 hours with subsequent assessment of the phosphorylation status of the downstream targets for Cdc7 (MCM2, Ser40/41 and Ser53), and the putative off-target kinases CDK8 (STAT1, Ser727); CDK7 and 9 (RNA pol II, Ser2); LATS2 (YAP1, Ser127) as well as the levels of MCL-1, known to be indirectly controlled by CDK9 (Gregory, 2015).

COLO-205 cells = experiment: Cell cycle sensitivity, double thymidine block, flow cytometry; format: cell-based, human; conditions: 1 μM added at S or M phase
Experimental: The sensitivity to SRA141 treatment at the various phases of the cell cycle was determined in Colo-205 cells synchronized with double thymidine block. Upon block release, SRA141 (1 μM) was added as the cells reached either S or M phase.

A20 tumor xenografts = experiment: A20 immunocompetent lymphoma xenograft model; format: in vivo; conditions: 120 mg/kg orally
Experimental: Immunocompetent female BALB/c mice bearing A20 tumor xenografts were administered (i) control (PBS, intraperitoneal) or (ii) SRA141 120 mg/kg orally; n=8 animals per group). Dosing occurred on Days 0 to 4, 7 to 11, and 14 to 18. Tumor growth inhibition was calculated on Day 23, the final day of the study.

[6] = test system: Colo-205 and SW620 cell populations; experiment: High content imaging of cells in mitosis, 48 hours; format: cell-based
[7] = In vitro metabolism in hepatocytes; format: in vitro ADME
Source text: Eleven metabolites were identified across species, of which 6 occurred in the human matrix. One human-specific metabolite was identified, but only at trace levels. The mouse, rat and dog hepatocyte metabolite profiles contained all the other human metabolites.

[8] = 2 mg/kg/day, at NOAEL, dog, female
[9] = 2 mg/kg/day, at NOAEL, dog, male
[10] = 10 mg/kg/day, at MTD/HNSTD, dog, female
[11] = 10 mg/kg/day, at MTD/HNSTD, dog, male

Cdc7, sequence (O00311 whole entry): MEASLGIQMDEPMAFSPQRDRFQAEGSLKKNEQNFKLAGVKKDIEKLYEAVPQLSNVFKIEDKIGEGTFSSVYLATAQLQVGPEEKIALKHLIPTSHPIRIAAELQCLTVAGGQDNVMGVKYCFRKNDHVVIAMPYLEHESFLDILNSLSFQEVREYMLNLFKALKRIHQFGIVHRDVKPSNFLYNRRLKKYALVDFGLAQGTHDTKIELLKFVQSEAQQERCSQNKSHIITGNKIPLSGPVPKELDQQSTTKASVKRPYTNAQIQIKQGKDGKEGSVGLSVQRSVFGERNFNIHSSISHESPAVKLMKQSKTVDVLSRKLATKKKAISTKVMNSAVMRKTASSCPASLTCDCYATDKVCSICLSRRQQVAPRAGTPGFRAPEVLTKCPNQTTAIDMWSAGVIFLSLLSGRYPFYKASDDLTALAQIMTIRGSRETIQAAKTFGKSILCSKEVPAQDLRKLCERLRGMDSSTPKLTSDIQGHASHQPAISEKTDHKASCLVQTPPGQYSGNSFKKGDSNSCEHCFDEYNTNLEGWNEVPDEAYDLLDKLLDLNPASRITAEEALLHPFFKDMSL
Cdc7, sequence (Q9UBU7 whole entry partner): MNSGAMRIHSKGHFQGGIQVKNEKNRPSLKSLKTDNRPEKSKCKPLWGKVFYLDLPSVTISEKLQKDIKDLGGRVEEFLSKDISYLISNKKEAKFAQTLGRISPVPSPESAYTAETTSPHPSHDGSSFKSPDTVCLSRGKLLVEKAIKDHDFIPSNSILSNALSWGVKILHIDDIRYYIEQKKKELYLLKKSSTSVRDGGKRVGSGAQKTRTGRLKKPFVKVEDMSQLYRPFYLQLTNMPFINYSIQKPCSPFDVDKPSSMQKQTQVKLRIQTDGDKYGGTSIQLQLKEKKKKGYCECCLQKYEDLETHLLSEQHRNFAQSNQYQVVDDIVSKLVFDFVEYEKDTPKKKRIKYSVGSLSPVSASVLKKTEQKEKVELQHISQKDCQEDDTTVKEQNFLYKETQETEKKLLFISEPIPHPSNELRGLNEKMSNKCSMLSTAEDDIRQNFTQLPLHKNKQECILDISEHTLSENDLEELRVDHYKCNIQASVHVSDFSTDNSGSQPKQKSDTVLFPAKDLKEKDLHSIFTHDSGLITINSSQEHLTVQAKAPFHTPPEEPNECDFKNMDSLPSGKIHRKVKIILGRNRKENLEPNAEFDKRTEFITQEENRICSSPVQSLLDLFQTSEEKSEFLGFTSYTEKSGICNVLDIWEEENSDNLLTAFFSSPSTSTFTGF

CCOC(=O)C1=C(NN2CCN(CC(F)(F)F)CC2)O/C(=C\c2c[nH]c3ncccc23)C1=O [SRA141]
tolerability ([1]; 30 mg/kg BID): well tolerated | tumor growth inhibition ([1]; 30 mg/kg BID): 26% | mice with maximum body weight loss greater than 20% ([1]; 60 mg/kg BID): Six of 10 | tumor growth inhibition ([1]; 60 mg/kg BID): 53% | IC50 (Cdc7; no pre-incubation): 4 nM | IC50 (Cdc7; pre-incubation with Cdc7 enzyme for 1 hour): 1.4 nM | NOAEL Dose ([2]; dog): 40 mg/m2/day | MTD/HNSTD Dose ([2]; dog (HNSTD)): 200 mg/m2/day | NOAEL at 4 cycles (5 days on/2 days off) ([2]; dog, in vivo, oral): 2 mg/kg/day | MTD at 4 cycles (5 days on/2 days off) ([2]; in vivo, oral, dog (HNSTD)): 10 mg/kg/day | Cmax [2, 8]: 129 ng/mL | AUC(0-t) [2, 8]: 804 ng·h/mL | Cmax [2, 9]: 98 ng/mL | AUC(0-t) [2, 9]: 859 ng·h/mL | Cmax [2, 10]: 576 ng/mL | AUC(0-t) [2, 10]: 6840 ng·h/mL | Cmax [2, 11]: 497 ng/mL | AUC(0-t) [2, 11]: 5660 ng·h/mL | potential target organs for SRA141-related toxicity ([2]; rat and dog repeat-dose studies together, dog most sensitive species): gallbladder/biliary system, lymphoid tissues (spleen, thymus, lymph node and GALT), bone marrow, liver, kidney, male and female reproductive tract, peripheral leukocytes, and salivary gland | bioavailability [3]: 31 to 54% | bioavailability ([4]; free base suspension, fasted, range given for mouse, rat and dog together): 31 to 54% | bioavailability ([4]; two proposed clinical drug product capsule presentations): 41 to 62% | mice with maximum body weight loss greater than 20% (SW620 tumor xenografts; 60 mg/kg TID): Four of 10 | tumor growth inhibition (SW620 tumor xenografts; 60 mg/kg TID, 4 days on/2 days off): 78% | mice meeting the 20% weight loss threshold (SW620 tumor xenografts; 120 mg/kg QD): None | tumor growth inhibition (SW620 tumor xenografts; 120 mg/kg QD): 73% | IC50 (EOL-1): 270 nM | IC50 (MV-4-11): 1440 nM | IC50 (Molm-16): 240 nM | IC50 (CYP 3A4/5): 6200 to 6700 nM | concentration from which MCM2 phosphorylation at Ser40/41 and Ser53 was reduced [5]: 0.033 µM | sub-G1 (apoptotic) population by cell cycle phase of treatment (COLO-205 cells): accumulated as the cells progressed through M phase provided they were treated with SRA141 during the preceding S phase | tolerability (A20 tumor xenografts): tolerated | tumor growth inhibition (A20 tumor xenografts; Days 0 to 4, 7 to 11, 14 to 18, Day 23): 59% | percent of cells in mitosis [6]: percent of cells in mitosis is greater in populations treated with SRA141 compared to other Cdc7 inhibitors | metabolic stability ([7]; dog hepatocytes): favorable metabolic stability | metabolic stability ([7]; rat hepatocytes): favorable metabolic stability

Source: US12533353B2, “Methods of treatment of cancer comprising CDC7 inhibitors” (CARNA BIOSCIENCES, INC., priority 2018, dated 2026)
